In US5182289A, “Heterobicyclic compounds having antiinflammatory activity” (Schering Corporation, priority 1990, dated 1993):
Like-named read-outs stand apart in the source and are kept apart here.

Assays:
Assay type in all cases: in vivo, male rats
[1] = test system: Reversed Passive Arthus Reaction (RPAR) in the pleural cavity; test: Reversed Passive Arthus Reaction (RPAR) in the pleural cavity: cells and fluid; settings: Rattus norvegicus, 4 h; for inhibition in vivo at 25 mg/kg: dose 25 mpk; for inhibition in vivo at 20 mg/kg: dose 20 mpk
Procedure: (§1) Reversed Passive Arthus Reaction (RPAR) Assay
(§2) Groups of 4 male rats were injected in the penile vein with antigen (1 mg BSA in 0.2 mL of saline per rat) and 0.5 hour later injected in the pleural cavity with antibody (1.0 mg antibody protein in the IgG fraction of rabbit anti-BSA in 0.2 mL). […] After 4 hours the animals were killed with CO2, and the pleural cavities were opened and the exudate drained into a graduated conical glass centrifuge tube containing indomethacin (1.8 ug) and nordihydroguaiaretic acid (NDGA) (15 ug) to block ex vivo metabolite synthesis. The volume of the exudate was measured. The cavity was then washed out with saline-EDTA to achieve a final volume of 5.0 mL. The number of cells were determined in a Colulter Counter. The cells were spun-down (1000×g) and the exudate supernatant was added to 4 volumes of 95% ethanol and samples were kept on ice for 30 minutes. After removal of the protein precipitate (2,500×g) the ethanol extract of the exudate was dried under N2 and then stored at -20° C. For radioimmunoassay (RIA) analysis the samples were redissolved in water to a volume of 1 mL per rat. Utilizing internally spiked samples, recovery of TXB2 (tritiated thromboxane B2) and LTE4 (tritiated leukotriene-E4) from exudates was determined to be 84±2% (SEM) and 89±2% (N=4), respectively. Exudate samples were directly assayed in duplicate with the commercial ^3 H-TXB2 RIA kit from New England Nuclear and the ^3 H-LTC4 /D4 /E4 kit from Amersham. The assay was validated using reversed-phase HPLC analysis of LTs in the standard procedure described by M. W. Musch, R. W. Bryant, C. Coscollaela, R. F. Myers and M. I. Siegel, Prostaglandins, Vol. 29, pp 405-430 (1985). Samples of ethanol exudate extract were "spiked" with ^3 H-LTs to follow HPLC purification and recovery.

5-LO = test: Reversed Passive Arthus Reaction (RPAR) in the pleural cavity: LTE-4 in exudate
Procedure: as §1, §2

CO (cyclooxygenase) = test: Reversed Passive Arthus Reaction (RPAR) in the pleural cavity: TXB-2 in exudate
Procedure: as §1, §2

[2] = read-out: RPAR-Pleural Cavity % Inhibition cells
[3] = read-out: RPAR-Pleural Cavity % Inhibition fluid

CN1C(=O)C(C)(C)c2cccnc21 [Compound 3, 1,3-dihydro-1,3,3-trimethyl-2H-pyrrolo[2,3-b]pyridin-2-one]
inhibition in vivo at 25 mg/kg [1, 2]: 69% | inhibition in vivo at 25 mg/kg [1, 3]: 53% | RPAR-Pleural Cavity % Inhibition LTE-4 (5-LO; dose 25 mpk): 62% | RPAR-Pleural Cavity % Inhibition TXB-2 (CO (cyclooxygenase); dose 25 mpk): 17%

CC1(C)C(=O)N(c2cccc(Cl)c2)c2ncccc21 [Compound 5, 1-(3-chlorophenyl)-1,3-dihydro-3,3-dimethyl-2H-pyrrolo[2,3-b]pyridin-2-one]
inhibition in vivo at 25 mg/kg [1, 2]: 51% | inhibition in vivo at 25 mg/kg [1, 3]: 49% | RPAR-Pleural Cavity % Inhibition LTE-4 (5-LO; dose 25 mpk): 59% | RPAR-Pleural Cavity % Inhibition TXB-2 (CO (cyclooxygenase); dose 25 mpk): 62%

CC1(C)C(=O)N(c2ccc(Cl)c(Cl)c2)c2ncccc21 [Compound 6, 1-(3,4-dichlorophenyl)-1,3-dihydro-3,3-dimethyl-2H-pyrrolo[2,3-b]pyridin-2-one]
inhibition in vivo at 25 mg/kg [1, 2]: 26% | inhibition in vivo at 25 mg/kg [1, 3]: 25% | RPAR-Pleural Cavity % Inhibition LTE-4 (5-LO; dose 25 mpk): 46% | RPAR-Pleural Cavity % Inhibition TXB-2 (CO (cyclooxygenase); dose 25 mpk): 44%

COc1ccc(N2C(=O)C(C)(C)c3cccnc32)cc1 [Compound 8, 1,3-dihydro-3,3-dimethyl-1-(4-methoxyphenyl)-2H-pyrrolo[2,3-b]pyridin-2-one]
inhibition in vivo at 25 mg/kg [1, 2]: 63% | inhibition in vivo at 25 mg/kg [1, 3]: 42% | RPAR-Pleural Cavity % Inhibition LTE-4 (5-LO; dose 25 mpk): 0% | RPAR-Pleural Cavity % Inhibition TXB-2 (CO (cyclooxygenase); dose 25 mpk): 34%

CC1(C)C(=O)N(c2ccc(F)cc2)c2ncccc21 [Compound 9, 1,3-dihydro-3,3-dimethyl-1-(4-fluorophenyl)-2H-pyrrolo[2,3-b]pyridin-2-one]
inhibition in vivo at 20 mg/kg [1, 2]: 70% | inhibition in vivo at 20 mg/kg [1, 3]: 43% | RPAR-Pleural Cavity % Inhibition LTE-4 (5-LO; dose 20 mpk): 36% | RPAR-Pleural Cavity % Inhibition TXB-2 (CO (cyclooxygenase); dose 20 mpk): 53%
